Results as given in the supplement of paper PMC10307832.

Tests used:
Assay in all cases: relative viability (nuclei count vs DMSO), 5 days (fraction); higher = more cells survive
AZD1208 + Trametinib = compound: N[C@@H]1CCCN(c2c(/C=C3\SC(=O)NC3=O)cccc2-c2ccccc2)C1 [AZD1208] + CC(=O)Nc1cccc(-n2c(=O)n(C3CC3)c(=O)c3c(Nc4ccc(I)cc4F)n(C)c(=O)c(C)c32)c1 [Trametinib] (partner 0.02 µM)
In short: (§1)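 Nuclei were stained with Hoechst during a one-step fixation (final 0.05% Triton X-100, 1% formaldehyde, 1 ug/ml Hoechst) carried out 5 days after dosing, then counted on 4× images. The cells, lung cancer lines in 1536-well plates, had been dosed by pin tool the day after seeding with one drug alone or a fixed anchor-drug dose plus five library-drug doses (not always all listed) in √10 steps. Relative viability is the nuclei count in treated wells divided by that in vehicle wells, and each value is the median of duplicate plates.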

XMD14-99 + Decitabine = compound: CN1CCN(CC1)C2=CC(=C(C=C2)NC3=NC(=C(S3)C(=O)C4=C(C=CC=C4Cl)Cl)N)OC [XMD14-99] + Nc1ncn([C@H]2C[C@H](O)[C@@H](CO)O2)c(=O)n1 [Decitabine] (partner 2 µM)
In short: as §1

AZD1208 + AZD7762 = compound: N[C@@H]1CCCN(c2c(/C=C3\SC(=O)NC3=O)cccc2-c2ccccc2)C1 [AZD1208] + NC(=O)Nc1cc(-c2cccc(F)c2)sc1C(=O)N[C@H]1CCCNC1 [AZD7762] (partner 0.2 µM)
In short: as §1

XMD14-99 + Pictilisib = compound: CN1CCN(CC1)C2=CC(=C(C=C2)NC3=NC(=C(S3)C(=O)C4=C(C=CC=C4Cl)Cl)N)OC [XMD14-99] + CS(=O)(=O)N1CCN(Cc2cc3nc(-c4cccc5[nH]ncc45)nc(N4CCOCC4)c3s2)CC1 [Pictilisib] (partner 1 µM)
In short: as §1

Cell Line	relative viability (AZD1208 + Trametinib; first compound 0.08 µM)	relative viability (AZD1208 + Trametinib; first compound 0.253 µM)	relative viability (AZD1208 + Trametinib; first compound 0.8 µM)	relative viability (AZD1208 + Trametinib; first compound 2.53 µM)	relative viability (AZD1208 + Trametinib; first compound 8 µM)	relative viability (XMD14-99 + Decitabine; first compound 0.08 µM)	relative viability (XMD14-99 + Decitabine; first compound 0.8 µM)	relative viability (XMD14-99 + Decitabine; first compound 2.53 µM)	relative viability (XMD14-99 + Decitabine; first compound 8 µM)	relative viability (AZD1208 + AZD7762; first compound 0.08 µM)	relative viability (AZD1208 + AZD7762; first compound 0.253 µM)	relative viability (AZD1208 + AZD7762; first compound 0.8 µM)	relative viability (AZD1208 + AZD7762; first compound 2.53 µM)	relative viability (AZD1208 + AZD7762; first compound 8 µM)	relative viability (XMD14-99 + Pictilisib; first compound 0.08 µM)	relative viability (XMD14-99 + Pictilisib; first compound 0.8 µM)	relative viability (XMD14-99 + Pictilisib; first compound 2.53 µM)	relative viability (XMD14-99 + Pictilisib; first compound 8 µM)
HOP-62	0.372	0.381	0.379	0.377	0.322	0.23	0.226	0.237	0.273	0.859	0.794	0.612	0.66	0.824	0.917	0.842	0.808	0.646
IA-LM															0.34	0.256	0.157	0.191
LC-2-ad	0.92	0.917	0.664	0.933	0.935	0.776	0.727	0.777	0.745	0.842	0.888	0.798	0.804	0.897	0.488	0.439	0.49	0.32
LCLC-97TM1	0.21	0.172	0.137	0.183	0.162	0.226	0.233	0.236	0.255	0.283	0.591	0.334	0.386	0.306	0.165	0.217	0.17	0.172
LCLC-103H	0.63	0.651	0.683	0.686	0.681	0.715	0.739	0.721	0.682	0.843	0.84	0.774	0.74	0.689	0.58	0.731	0.558	0.454
LK-2	0.574	0.502	0.511	0.445	0.474	0.258	0.297	0.328	0.21	0.307	0.167		0.11	0.144	0.592	0.506	0.517	0.465
LOU-NH91	0.785	0.786	0.759	0.825	0.728	0.868	0.853	0.807	0.776	0.74	0.714	0.71	0.684	0.667	0.586	0.614	0.516	0.545
LU99A	0.574	0.575	0.515	0.508	0.446	0.852	0.918	0.784	0.669	0.371	0.385	0.41	0.435	0.365	0.257	0.304	0.267	0.262
NCI-H520	0.633	0.678	0.279	0.55	0.502	0.465	0.468	0.483	0.44						0.254	0.266	0.277	0.266
NCI-H522	0.686	0.663	0.55	0.635	0.677	0.703	0.648	0.554	0.672	0.773	0.892	0.756	0.747	0.584				
NCI-H661	0.549	0.565	0.544	0.543	0.514	0.562	0.55	0.502	0.44						0.375	0.322	0.389	0.298
NCI-H1299															0.668	0.637	0.623	0.505
NCI-H1563															0.683	0.632	0.666	0.568
NCI-H1648	0.588	0.441	0.435	0.402	0.497	0.47	0.501	0.479	0.455	0.584	0.618	0.684	0.533	1.28				
NCI-H1650	0.575	0.667	0.536	0.517	0.537	0.393	0.418	0.41	0.338						0.561	0.67	0.505	0.328
NCI-H1703										0.116	0.0963	0.18	0.128	0.102	0.276	0.269	0.27	0.22
NCI-H2009	0.264	0.249	0.256	0.224	0.207	0.342	0.343	0.378	0.371						0.752	0.948	0.85	0.556
NCI-H2023	0.601	0.55	0.416	0.506	0.394	0.222	0.212	0.228	0.166						0.238	0.247	0.26	0.157
NCI-H2228	0.578	0.669	0.36	0.525	0.343										0.567	0.31	0.271	0.184
NCI-H2342	0.803	0.806	0.781	0.678	0.637	0.724	0.739	0.765	0.638	0.553	0.417	0.461	0.474	0.409				
SK-LU-1	0.46	0.531	0.446	0.491	0.585	0.606	0.707	0.666	0.412						0.554	0.576	0.545	0.344
SK-MES-1	0.47	0.509	0.54	0.533	0.482	0.421	0.389	0.451	0.336						0.407	0.327	0.349	0.247
SW 900	0.721	0.941	0.697	0.641	0.708	0.413	0.443	0.386	0.419	0.62	0.518	0.453	0.576	0.485				
SW 1573	0.433	0.438	0.44	0.419	0.317	0.451	0.545	0.475	0.334						0.434	0.531	0.496	0.547
